Test results published in US5972671A, “Fructosyl amino acid oxidase and process for producing the same” (Kyoto Daiichi Kagaku Co., Ltd., priority 1994, dated 1999).
Where two headings read alike, the source gives them in different places.

Columns and labels:
[1] = test system: FLOD-S derived from S-1F4 strain; assay: Effect of various inhibitors on activity of FLOD-S; stabilization; format: biochemical, Fusarium oxysporum S-1F4
Method: In the present test, the final concentration of PCMB (parachloro mercuric benzoate) is 0.1 mM while that of others 1 mM. The stabilization effect was examined by dialyzing the mixture overnight against 50 mM Tris-HCl buffer (pH 8.5) containing 2 mM dithiothreitol (DTT) and measuring the enzyme activity.

[2] = test system: FLOD-G derived from Gibberella fujikuroi; assay: Effect of various inhibitors on the activity of FLOD-G; stabilization; format: biochemical
Method: The inhibitory effect of various substances was tested in a manner substantially analogous to that described in (1) above. The stabilization effect was examined by dialyzing overnight against 50 mM Tris-HCl buffer (pH 8.5) containing 2 mM DTT and measuring the activity.

[3] = test system: FLOD-G derived from Gibberella fujikuroi (IFO No. 6605); assay: Effect of metal ion on the activity of FLOD-G; format: biochemical
Method: Then, the enzyme activity was evaluated.

[4] = test system: FLOD-S derived from S-1F4 strain; assay: Effect of metal ion on the activity of FLOD-S; format: biochemical, Fusarium oxysporum S-1F4
Method: After 5 minutes of incubation at 30° C., the enzyme activity was evaluated.

[5] = test system: FLOD-S derived from S-1F4 strain; assay: Substrate specificity of FLOD-S (hydrogen peroxide generation)
Method: The partially purified enzyme was prepared in the following manner. Thus, S-1F4 strain was grown in a GL brown-colored medium for 24 hours and the culture was filtered with suction to harvest mycelia. The mycelia were then washed, suspended in 0.1 M Tris-HCl buffer (pH 8.5), ground by means of Dino-Mill and centrifuged. The centrifugal supernatant is fractionated with ammonium sulfate and purified using DEAE-Sephacel ion-exchange chromatography to obtain the partially purified enzyme. The purified enzyme was prepared according to the method described in Example 1 below.
A 50 mM FZL solution was prepared by dissolving FZL previously obtained in distilled water. To a mixture of 100 μl of 45 mM 4-aminoantipyrine, 100 μl of peroxidase (60 U/ml), 100 μl of 60 mM phenol, 1 ml of 0.1 M Tris-HCl buffer (pH 8.0) and 50 μl of enzyme solution was added distilled water to give a total volume of 2.9 ml and the solution was allowed to equilibrate at 30° C. After the addition of 100 μl of 50 mM FZl solution, the time-course of absorbance at 505 nm was measured. The amount (μmol) of hydrogen peroxide produced in one minute was calculated on the basis of a molar absorption coefficient (5.16×10^3 M^-1 cm^-1) of a quinone pigment produced. The resultant numerical value was taken as a unit(U) of enzyme activity.

[6] = test system: FLOD-G derived from Gibberella fujikuroi; assay: Substrate specificity of FLOD-G
Method: To a mixture of 100 μl of 45 mM 4-aminoantipyrine, 100 μl of peroxidase solution (60 U/ml), 100 μl of 60 mM phenol, 1 ml of 0.1 M Tris-HCl buffer (pH 8.0) and 50 μl of enzyme solution, was added distilled water to give a total volume of 2.95 ml and the solution was allowed to be equilibrated at 30° C. After the addition of 50 μl of 100 mM FZL solution, the time-course of absorbance at 505 nm was measured. The amount (μmol) of hydrogen peroxide produced in one minute was calculated on the basis of a molar absorption coefficient (5.16×10^3 M^-1 cm^-1) of a quinone pigment produced. The resultant numerical value was taken as a unit (U) of enzyme activity.

[7] = inhibitor (mM), concentration not given, None = 100
[8] = metal 1 mM, 0.1 M Tris-HCl pH 8.0, pre-incubated 5 minutes at 30° C., None = 100
[9] = metal 1 mM, 0.1 M Tris-HCl pH 8.0, 5 minutes at 30° C., None = 100
[10] = partially purified FLOD-S, substrate 0.018%

Molecule | Specific activity (%) ([1]; reagent 1 mM, None = 100) | Specific activity (%) [2, 7] [%] | Specific activity (%) [3, 8] [%] | Specific activity (%) [4, 9] [%] | other results
NNc1ccccc1 [Phenylhydrazine] | 2.6 | 13 |  |  | Inhibition of FLOD-S activity by inhibitor [1]: inhibited; Inhibition of FLOD-G activity by inhibitor [2]: strongly inhibited
[Cl-].[Li+] [LiCl] |  |  | 96 | 100 | 
NN [Hydrazine] | 13 | 14 |  |  | Inhibition of FLOD-S activity by inhibitor [1]: inhibited; Inhibition of FLOD-G activity by inhibitor [2]: strongly inhibited
O=C(O)c1cc[c]([Hg][Cl])cc1 [PCMB, parachloro mercuric benzoate] |  |  |  |  | Inhibition of FLOD-S activity by inhibitor ([1]; PCMB 0.1 mM, others 1 mM): completely inhibited; Specific activity (%) ([1]; reagent 0.1 mM, None = 100): 0%; Inhibition of FLOD-G activity by inhibitor [2]: strongly inhibited; Specific activity (%) ([2]; inhibitor 0.1 mM, None = 100): 51%
C#CCN(C)C(C)Cc1ccccc1 (stereo not shown) [Deprenyl] | 102 | 81 |  |  | 
[Cl-].[Rb+] [RbCl] |  |  | 97 | 103 | 
N=C(N)NN [Aminoguanidine] | 66 | 50 |  |  | Inhibition of FLOD-G activity by inhibitor [2]: strongly inhibited
[Cl-].[Cs+] [CsCl2] |  |  | 97 | 102 | 
O[C@H](CS)[C@H](O)CS (racemic) [dithiothreitol] |  |  |  |  | Stabilization of FLOD-S ([1]; pH 8.5): stabilized; Stabilization of FLOD-G ([2]; dialysis overnight against 50 mM Tris-HCl buffer (pH 8.5) containing 2 mM DTT): stabilized
[Cl][Hg][Cl] [HgCl2] |  |  | 25 | 0 | Inhibition of FLOD-G activity by metal ion ([3]; metal 1 mM): inhibited; Inhibition of FLOD-S activity by metal ion ([4]; metal 1 mM): completely inhibited
O=[N+]([O-])[O-].[Ag+] [AgNO3] |  |  | 0 | 0 | Inhibition of FLOD-G activity by metal ion ([3]; metal 1 mM): completely inhibited; Inhibition of FLOD-S activity by metal ion ([4]; metal 1 mM): completely inhibited
[Cl][Fe]([Cl])[Cl] [FeCl3] |  |  | 16 | 67 | Inhibition of FLOD-G activity by metal ion ([3]; metal 1 mM): inhibited
NNC(N)=O [Semicarbazide] | 103 | 77 |  |  | 
[Ca+2].[Cl-].[Cl-] [CaCl2] |  |  | 97 | 77 | 
[Cl-].[K+] [KCl] |  |  | 98 | 104 | 
O=C(O)CI [Iodoacetic acid] |  |  |  |  | Specific activity (%) [1]: 102%; Specific activity (%) [2]: 77%
c1cnc2c(c1)ccc1cccnc12 [O-Phenanthrolene] | 103 | 78 |  |  | 

Molecule | Specific activity (%) ([1]; reagent 1 mM, None = 100) | Specific activity (%) [2, 7] [%] | Specific activity (%) [3, 8] [%] | Specific activity (%) [4, 9] [%] | other results
O=C(O)CN(CCN(CC(=O)O)CC(=O)O)CC(=O)O [EDTA] |  |  |  |  | Specific activity (%) [2]: 81%
O=C(O)c1cc(SSc2ccc([N+](=O)[O-])c(C(=O)O)c2)ccc1[N+](=O)[O-] [5,5',-Dithiobis(2-nitrobenzoic acid)] | 95 | 76 |  |  | 
c1ccc(-c2ccccn2)nc1 [α,α'-Dipyridyl] | 106 | 78 |  |  | 
O=C(N[C@@H](CCCCNCC(=O)[C@@H](O)[C@H](O)[C@H](O)CO)C(=O)O)OCc1ccccc1 [Fructosyl N^α -Z-lysine, fructosyl N^α -Z-lysine] |  |  |  |  | Specificity of FLOD-S to substrate [5]: remarkably specific
[Cl-].[Cl-].[Mg+2] [MgCl2] |  |  | 94 | 75 | 
Fructosyl poly-L-lysine |  |  |  |  | Activity of FLOD-G on substrate [6]: active; Specific activity (%) ([6]; FLOD-G, substrate 0.017%): 1.0%; Specificity of FLOD-S to substrate [5]: specific; Activity [5, 10]: 0.0738 U/ml; Specific activity (%) [5, 10]: 2.3%; Specific activity (%) ([5]; purified FLOD-S, substrate 0.02%): 2.3%
[Ba+2].[Cl-].[Cl-] [BaCl2] |  |  | 103 | 60 | 
O=S(=O)([O-])[O-].[Co+2] [CoSO4] |  |  | 15 | 42 | Inhibition of FLOD-G activity by metal ion ([3]; metal 1 mM): inhibited
O=S(=O)([O-])[O-].[Fe+2] [FeSO4] |  |  | 74 | 97 | 
[Cl][Mn][Cl] [MnCl2] |  |  | 115 | 154 | 
[Cl][Cu][Cl] [CuCl2] |  |  | 2 | 0 | Inhibition of FLOD-G activity by metal ion ([3]; metal 1 mM): inhibited; Inhibition of FLOD-S activity by metal ion ([4]; metal 1 mM): completely inhibited
NO [Hydroxylamine] | 21 | 16 |  |  | Inhibition of FLOD-G activity by inhibitor [2]: strongly inhibited
C#CCN(C)CCCOc1ccc(Cl)cc1Cl [Clorgyline] | 132 |  |  |  | 
O=S(=O)([O-])[O-].[Zn+2] [ZnSO4] |  |  | 33 | 0 | Inhibition of FLOD-G activity by metal ion ([3]; metal 1 mM): inhibited; Inhibition of FLOD-S activity by metal ion ([4]; metal 1 mM): completely inhibited
[Cl-].[Na+] [NaCl] |  |  |  |  | Specific activity (%) ([3]; pH 8): 97%; Specific activity (%) ([4]; pH 8): 107%
[N-]=[N+]=[N-] [Sodium azide] | 101 | 78 |  |  | 
